Results taken from patent US20260263479A1, “KRAS G12D INHIBITORS AND USES THEREOF” (SUZHOU ZANRONG PHARMA LIMITED, priority 2023, published 2026).

Columns and labels:
PANC-1 pERK = assay: Phospho-ERK 1/2 assay; type: cell-based; details: PANC-1 cells, 3 hours incubation with compound
Description: Allow PNAC-1 cell growth in a T75 flask in DMEM and 10% 1 fetal calf serum (FCS; Gibco®), using standard tissue culture procedures until ~80% confluency is achieved. Day 1, seed 6000 cells/well in 384 well plate and incubate at 37° C., 5% CO2. Add diluted compound by Echo 550, final DMSO is 0.5%, incubate cells at 37° C., 5% CO2 for 3 hours. Then, remove medium and fix cells with 3.7% formaldehyde in PBS (PFA) by Apricot. Wash with PBS once. Permeabilize cells with cold 100% methanol and repeat wash once with PBS once. Add Li-Cor blocking buffer to each well and incubate 1.5 hours at RT. Remove blocking buffer and add primary antibody mixture (rabbit anti pERK, mouse anti GAPDH). Incubate at 4° C. overnight. Day 2, wash with PBST (Tween-20 in PBS) with total 3 times and then add secondary antibody mixture (goat anti rabbit 800CW (1:800 dilution in the combined solution) and goat anti mouse 680RD (1:800 dilution in the combined solution)), incubate for 60 minutes at RT away from light. Repeat washing with PBST 3 times. After final wash, centrifuge plate up-side-down at 1000 rpm to remove wash solution completely from wells. Before plate scanning, clean the bottom plate surface and the Odyssey® Imager scanning bed (if applicable) with moist, lint-free tissue to avoid any obstructions during scanning. Scan plate with detection in both 700 and 800 nm channels.

P-glycoprotein (Pgp) = target: T1, P-glycoprotein (Pgp) (Homo sapiens, UniProt P08183); assay: MDCK-MDR1 Pgp assessment; type: in vitro ADME; details: dog, MDCK-MDR1 cells, 37° C., read-out: Pgp Efflux Ratio (Pexact)
T1 construct: expressed in transfected cells; host or cells: MDCK-MDR1 cells
Description: Efflux transport mediated by P-glycoprotein (Pgp) was assessed by MDCK-MDR1 cells. The final concentrations of test compounds and control compound were at 1 μM. The multi-well insert plate was incubated at 37° C. for 2 hours. In order to reliably measure passive permeability coefficients, Pexact was reported, which automatically corrects for loss of compound.

T1 sequence (P08183 whole entry): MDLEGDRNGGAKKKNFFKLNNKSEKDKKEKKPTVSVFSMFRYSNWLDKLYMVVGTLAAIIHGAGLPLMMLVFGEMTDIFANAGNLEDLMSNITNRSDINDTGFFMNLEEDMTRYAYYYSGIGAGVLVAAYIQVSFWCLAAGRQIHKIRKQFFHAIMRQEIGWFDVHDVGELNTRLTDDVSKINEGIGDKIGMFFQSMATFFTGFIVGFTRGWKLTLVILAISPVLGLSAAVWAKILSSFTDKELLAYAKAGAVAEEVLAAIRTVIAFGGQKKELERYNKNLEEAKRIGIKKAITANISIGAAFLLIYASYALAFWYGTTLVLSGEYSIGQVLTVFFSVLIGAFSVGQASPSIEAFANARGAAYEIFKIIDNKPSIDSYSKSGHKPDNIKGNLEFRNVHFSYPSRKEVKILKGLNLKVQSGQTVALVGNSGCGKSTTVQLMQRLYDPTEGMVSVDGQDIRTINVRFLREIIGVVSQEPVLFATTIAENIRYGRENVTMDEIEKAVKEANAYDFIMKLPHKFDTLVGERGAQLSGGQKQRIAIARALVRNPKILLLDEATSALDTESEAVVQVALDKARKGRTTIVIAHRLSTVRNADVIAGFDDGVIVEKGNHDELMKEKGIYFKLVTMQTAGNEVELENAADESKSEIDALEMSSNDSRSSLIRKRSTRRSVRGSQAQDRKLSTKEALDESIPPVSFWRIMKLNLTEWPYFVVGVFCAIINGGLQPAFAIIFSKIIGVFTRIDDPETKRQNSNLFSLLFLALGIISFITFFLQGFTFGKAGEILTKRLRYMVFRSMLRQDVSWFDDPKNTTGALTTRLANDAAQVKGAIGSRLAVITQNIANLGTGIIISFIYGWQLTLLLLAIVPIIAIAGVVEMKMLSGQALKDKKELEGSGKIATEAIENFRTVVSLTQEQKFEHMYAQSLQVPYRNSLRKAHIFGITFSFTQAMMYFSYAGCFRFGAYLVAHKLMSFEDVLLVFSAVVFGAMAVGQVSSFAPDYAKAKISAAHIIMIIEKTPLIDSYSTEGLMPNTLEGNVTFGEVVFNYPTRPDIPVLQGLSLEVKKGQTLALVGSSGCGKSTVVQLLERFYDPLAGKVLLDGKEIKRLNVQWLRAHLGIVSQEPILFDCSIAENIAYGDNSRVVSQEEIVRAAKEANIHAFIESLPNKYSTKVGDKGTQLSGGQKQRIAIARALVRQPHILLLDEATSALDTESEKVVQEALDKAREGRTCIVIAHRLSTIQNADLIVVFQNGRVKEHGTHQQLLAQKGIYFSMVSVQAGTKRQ

Molecule `C#Cc1c(F)ccc2cccc(-c3nc4c5c(cc(OC[C@]67CC(=C)CN6C[C@@H](F)C7)nc5c3F)N3C[C@H]5CC[C@H](N5)[C@H]3[C@H](C)O4)c12` [Example 607] has an IC50 (PANC-1 pERK; Homo sapiens, PANC-1, 3 h) of 198 nM.
Work on `C#Cc1c(F)ccc2cccc(-c3nc4c5c(cc(OCC67CCCN6CC(=C)C7)nc5c3F)N3C[C@H]5CC[C@H](N5)[C@H]3[C@H](C)O4)c12` (some centres unmarked) [Example 572] yielded an IC50 (PANC-1 pERK; Homo sapiens, PANC-1, 3 h) of 14 nM.
With `CCc1c(F)ccc2cc(O)cc(-c3nc4c5c(cc(OC[C@@]67CCCN6C[C@H](F)C7)nc5c3F)N3C[C@@]5(C)CC[C@H](N5)[C@H]3[C@H](C)O4)c12` [Example 615] the IC50 (PANC-1 pERK; Homo sapiens, PANC-1, 3 h) was 25 nM.
`C=C1CN2CCC[C@@]2(COc2cc3c4c(nc(-c5cc(O)cc6ccc(F)c(CC)c56)c(F)c4n2)OC[C@@H]2[C@@H]4CC[C@H](CN32)N4)C1` [Example 40, 5-ethyl-6-fluoro-4-((5aS,6S,9R)-1-fluoro-13-(((S)-2-methylenetetrahydro-1H-pyrrolizin-7a (5H)-yl)methoxy)-5a,6,7,8,9,10-hexahydro-5H-6,9-epiminoazepino[2′,1′: 3,4][1,4]oxazepino[5,6,7-de][1,6]naphthyridin-2-yl)naphthalen-2-ol] showed an IC50 (PANC-1 pERK; Homo sapiens, PANC-1, 3 h) of 16 nM.
Work on `CCc1c(F)ccc2cc(O)cc(-c3nc4c5c(cc(OC[C@@]67CCCN6C/C(=C\F)C7)nc5c3F)N3C[C@H]5CC[C@H](N5)[C@H]3[C@H](C)O4)c12` [Example 601] yielded an IC50 (PANC-1 pERK; Homo sapiens, PANC-1, 3 h) of 8.2 nM.
`Cc1cc(N)nc(-c2c(F)c3c4c(cc(OCC5(CN6CCOC[C@H]6C)CC5)nc4c2F)N2C[C@H]4CC[C@H](N4)[C@H]2[C@H](C)O3)c1C(F)(F)F` [Example 613a] showed an IC50 (PANC-1 pERK; Homo sapiens, PANC-1, 3 h) of 111 nM.
`C#Cc1c(F)ccc2cccc(-c3nc4c5c(cc(OC[C@@]67CC(=C)CN6C[C@H](OC)C7)nc5c3F)N3C[C@H]5CC[C@H](N5)[C@H]3[C@H](C)O4)c12` [Example 609] showed an IC50 (PANC-1 pERK; Homo sapiens, PANC-1, 3 h) of 9.6 nM.
Molecule `C#Cc1c(F)ccc2cc(O)cc(-c3nc4c5c(cc(OC[C@@]67CCCN6C[C@H](F)C7)nc5c3F)N3C[C@H]5CC[C@H](N5)[C@H]3[C@H](C)O4)c12` [Example 565, 5-ethynyl-6-fluoro-4-((5S,5aS,6S,9R)-1-fluoro-13-(((2R,7aS)-2-fluorotetrahydro-1H-pyrrolizin-7a (5H)-yl)methoxy)-5-methyl-5a,6,7,8,9,10-hexahydro-5H-6,9-epiminoazepino[2′,1′: 3,4][1,4]oxazepino[5,6,7-de][1,6]naphthyridin-2-yl)naphthalen-2-ol] has an efflux ratio at 2 h, 1 μM (P-glycoprotein (Pgp)) of 5.25 and an IC50 (PANC-1 pERK; Homo sapiens, PANC-1, 3 h) of 1.2 nM.
With `C=C1CN2CC(=C)CC2(COc2cc3c4c(nc(-c5cc(O)cc6ccc(F)c(CC)c56)c(F)c4n2)O[C@@H](C)[C@@H]2[C@@H]4CC[C@H](CN32)N4)C1` [Example 570] the IC50 (PANC-1 pERK; Homo sapiens, PANC-1, 3 h) was 76 nM.
In the case of `C=C1CN2CC(=C)CC2(COc2cc3c4c(nc(-c5cc(O)cc6ccc(F)c(CC)c56)c(F)c4n2)OC[C@@H]2[C@@H]4CC[C@H](CN32)N4)C1` [compound 42], the IC50 (PANC-1 pERK) is reported as 169 nM.
`C#Cc1c(F)ccc2cc(O)cc(-c3nc4c5c(cc(OCC67CCCN6CC(=C)C7)nc5c3F)N3C[C@H]5CC[C@H](N5)[C@H]3[C@H](C)O4)c12` (some centres unmarked) [Example 566] showed an efflux ratio at 2 h, 1 μM (P-glycoprotein (Pgp)) of 13 and an IC50 (PANC-1 pERK; Homo sapiens, PANC-1, 3 h) of 2.9 nM.
Molecule `C=C1CN2CCCC2(COc2cc3c4c(nc(-c5cc(O)cc6ccc(F)c(CC)c56)c(F)c4n2)O[C@@H](C)[C@@H]2[C@@H]4CC[C@H](CN32)N4)C1` (some centres unmarked) [Example 569] has an IC50 (PANC-1 pERK; Homo sapiens, PANC-1, 3 h) of 1.7 nM.
`C#Cc1c(F)ccc2cccc(-c3nc4c5c(cc(OCC6(CN7CCOC[C@H]7C)CC6)nc5c3F)N3C[C@H]5CC[C@H](N5)[C@H]3[C@H](C)O4)c12` [Example 611] was tested, and the IC50 (PANC-1 pERK; Homo sapiens, PANC-1, 3 h) was 14 nM.
For `C#Cc1cccc2cccc(-c3nc4c5c(cc(OC[C@@]67CCCN6CC(=C)C7)nc5c3F)N3C[C@H]5CC[C@H](N5)[C@H]3[C@H](C)O4)c12` [Example 605], the IC50 (PANC-1 pERK) was 25 nM.
Work on `C#Cc1c(F)ccc2cc(O)cc(-c3nc4c5c(cc(OC[C@@]67CCCN6CC(=C)C7)nc5c3F)N3C[C@H]5CC[C@H](N5)[C@H]3CO4)c12` [Example 2, 5-ethynyl-6-fluoro-4-((5aS,6S,9R)-1-fluoro-13-(((S)-2-methylenetetrahydro-1H-pyrrolizin-7a (5H)-yl)methoxy)-5a,6,7,8,9,10-hexahydro-5H-6,9-epiminoazepino[2′,1′: 3,4][1,4]oxazepino[5,6,7-de][1,6]naphthyridin-2-yl)naphthalen-2-ol] yielded an efflux ratio at 2 h, 1 μM (P-glycoprotein (Pgp)) of 5.37 and an IC50 (PANC-1 pERK; Homo sapiens, PANC-1, 3 h) of 14 nM.
Molecule `C#Cc1c(F)ccc2cc(O)cc(-c3c(F)c4c5c(cc(OC[C@@]67CCCN6C[C@H](F)C7)nc5c3F)N3C[C@H]5CC[C@H](N5)[C@H]3[C@H](C)O4)c12` (single isomer, unassigned) [Example 577b] has an IC50 (PANC-1 pERK) of 23.1 nM.
`C#Cc1c(F)ccc2cc(O)cc(-c3nc4c5c(cc(OCC67CC(=C)CN6CC(=C)C7)nc5c3F)N3C[C@H]5CC[C@H](N5)[C@H]3CO4)c12` [Example 4, 4-((5aS,6S,9R)-13-((2,6-dimethylenetetrahydro-1H-pyrrolizin-7a (5H)-yl)methoxy)-1-fluoro-5a,6,7,8,9,10-hexahydro-5H-6,9-epiminoazepino[2′,1′: 3,4][1,4]oxazepino[5,6,7-de][1,6]naphthyridin-2-yl)-5-ethynyl-6-fluoronaphthalen-2-ol] showed an IC50 (PANC-1 pERK; Homo sapiens, PANC-1, 3 h) of 34 nM.
Work on `CCc1c(F)ccc2cc(O)cc(-c3nc4c5c(cc(OC[C@@]67CCCN6C[C@H](F)C7)nc5c3F)N3C[C@H]5CC[C@H](N5)[C@H]3[C@H](C)O4)c12` [Example 568, 5-ethyl-6-fluoro-4-((5S,5aS,6S,9R)-1-fluoro-13-(((2R,7aS)-2-fluorotetrahydro-1H-pyrrolizin-7a (5H)-yl)methoxy)-5-methyl-5a,6,7,8,9,10-hexahydro-5H-6,9-epiminoazepino[2′,1′: 3,4][1,4]oxazepino[5,6,7-de][1,6]naphthyridin-2-yl)naphthalen-2-ol] yielded an IC50 (PANC-1 pERK; Homo sapiens, PANC-1, 3 h) of 5.6 nM.
`C=C1CN2CCC[C@@]2(COc2cc3c4c(nc(-c5cccc6ccc(F)c(CC)c56)c(F)c4n2)O[C@@H](C)[C@@H]2[C@@H]4CC[C@H](CN32)N4)C1` [Example 606] gave an IC50 (PANC-1 pERK; Homo sapiens, PANC-1, 3 h) of 246 nM.
`Cc1cc(N)nc(-c2nc3c4c(cc(OC[C@@]56CCCN5C[C@H](F)C6)nc4c2F)N2C[C@H]4CC[C@H](N4)[C@H]2[C@H](C)O3)c1C(F)(F)F` [Example 574] gave an IC50 (PANC-1 pERK; Homo sapiens, PANC-1, 3 h) of 33 nM.
With `C#Cc1c(F)ccc2cccc(-c3nc4c5c(cc(OC[C@@]67CCCN6C[C@H](F)C7)nc5c3F)N3C[C@H]5CC[C@H](N5)[C@H]3[C@H](C)O4)c12` [Example 571] the IC50 (PANC-1 pERK; Homo sapiens, PANC-1, 3 h) was 17 nM.
`C#Cc1c(F)ccc2cc(O)cc(-c3c(F)c4c5c(cc(OC[C@@]67CCCN6C[C@H](F)C7)nc5c3F)N3C[C@H]5CC[C@H](N5)[C@H]3[C@H](C)O4)c12` (single isomer, unassigned) [Example 577a] gave an IC50 (PANC-1 pERK) of 0.68 nM.
`C#Cc1c(F)ccc2cc(O)cc(-c3nc4c5c(cc(OCC67CC(=C)CN6CC(=C)C7)nc5c3F)N3C[C@H]5CC[C@H](N5)[C@H]3[C@H](C)O4)c12` [Example 567] showed an IC50 (PANC-1 pERK; Homo sapiens, PANC-1, 3 h) of 0.95 nM.
`C#Cc1c(F)ccc2cccc(-c3nc4c5c(cc(OC[C@@]67CCCN6CC(=C)C7)nc5c3F)N3C[C@H]5CC[C@H](N5)[C@H]3CO4)c12` [Example 78, (5aS,6S,9R)-2-(8-ethynyl-7-fluoronaphthalen-1-yl)-1-fluoro-13-(((S)-2-methylenetetrahydro-1H-pyrrolizin-7a (5H)-yl)methoxy)-5a,6,7,8,9,10-hexahydro-5H-6,9-epiminoazepino[2′,1′: 3,4][1,4]oxazepino[5,6,7-de][1,6]naphthyridine] was tested, and the IC50 (PANC-1 pERK; Homo sapiens, PANC-1, 3 h) was 464 nM.
`C#Cc1c(F)ccc2cc(O)cc(-c3nc4c5c(cc(OC[C@@]67CCCN6C/C(=C\F)C7)nc5c3F)N3C[C@H]5CC[C@H](N5)[C@H]3[C@H](C)O4)c12` [Example 602] was tested, and the IC50 (PANC-1 pERK; Homo sapiens, PANC-1, 3 h) was 1.5 nM.
Work on `C#Cc1c(F)ccc2cccc(-c3nc4c5c(cc(OC[C@@]67CCCN6CC6(CC6(F)F)C7)nc5c3F)N3C[C@H]5CC[C@H](N5)[C@H]3[C@H](C)O4)c12` (some centres unmarked) [Example 604] yielded an IC50 (PANC-1 pERK; Homo sapiens, PANC-1, 3 h) of 184 nM.
Work on `C#Cc1c(F)ccc2cccc(-c3nc4c5c(cc(OC[C@@]67CCCN6C/C(=C/F)C7)nc5c3F)N3C[C@H]5CC[C@H](N5)[C@H]3[C@H](C)O4)c12` [Example 603] yielded an IC50 (PANC-1 pERK; Homo sapiens, PANC-1, 3 h) of 48 nM.
With `C#Cc1c(F)ccc2cc(O)cc(-c3nc4c5c(cc(OC[C@@]67CCCN6C[C@H](F)C7)nc5c3F)N3C[C@@]5(C)CC[C@H](N5)[C@H]3[C@H](C)O4)c12` [Example 614] the IC50 (PANC-1 pERK; Homo sapiens, PANC-1, 3 h) was 8.1 nM.
`C#Cc1c(F)ccc2cccc(-c3nc4c5c(cc(OC[C@@]67CC(=C)CN6C[C@H](F)C7)nc5c3F)N3C[C@H]5CC[C@H](N5)[C@H]3[C@H](C)O4)c12` [Example 608] was tested, and the IC50 (PANC-1 pERK; Homo sapiens, PANC-1, 3 h) was 251 nM.
